Several values for one entry are separate records, joined by “and”; a condition that tells them apart may be missing. Equal values may be shown once.
Row | SMILES | melting point
1 | CC(C)(C)CO [neopentyl alcohol] | 54 °C
2 | CC(C)(C)CCl [neopentyl chloride] | -20 °C
3 | Cc1ccnc2c1NC(=O)c1cccnc1N2C1CC1 [nevirapine] | 248 °C
4 | O=C(OC[C@H]1O[C@](O)(COC(=O)c2cccnc2)[C@@H](OC(=O)c2cccnc2)[C@@H]1OC(=O)c1cccnc1)c1cccnc1 [nicofuranose] | 135 °C
5 | NC(=O)c1cccnc1 [nicotinamide] | 130 °C
6 | O=C(OC)\C1=C(\N/C(=C(/C(=O)OC)C1c2ccccc2[N+]([O-])=O)C)C [nifedipine] | 173 °C
7 | O=C1CN(/N=C/c2ccc([N+](=O)[O-])o2)C(=O)N1 [nitrofurantoin] | 263 °C
8 | C[N+](=O)[O-] [nitromethane] | -29 °C
9 | CCCCCCCCC(=O)O [nonanoic_acid] | 12 °C
10 | C#C[C@]1(O)CC[C@H]2[C@@H]3CCC4=CC(=O)CC[C@@H]4[C@H]3CC[C@@]21C [norethindrone] | 204 °C
11 | C=CCC(CC)(CC)C(N)=O [novonal] | 75 °C
12 | CNC(=S)NCO [noxythiolin] | 88 °C
13 | Clc1ccc(C(c2ccccc2Cl)C(Cl)(Cl)Cl)cc1 (stereo not drawn) [o,p'-DDT] | 75 °C
14 | Cc1ccccc1O [o-Cresol] | 33 °C
15 | CC(=O)Oc1ccccc1C=O [o-acetoxybenzaldehyde] | 38 °C
16 | CC(=O)c1ccccc1C#N [o-acetyl_benzonitrile] | 48 °C
17 | CC(=O)c1ccccc1C(N)=O [o-acetylbenzamide] | 122 °C
18 | Nc1ccccc1C(=O)O [o-aminobenzoic_acid] | 146 °C
19 | COc1ccccc1N [o-anisidine] [listing 1 of 2 here] | 6 °C
20 | COc1ccccc1N [o-anisidine] [listing 2 of 2 here] | 6 °C
21 | O=Cc1ccccc1Br [o-bromobenzaldehyde] | 22 °C
22 | O=C(O)c1ccccc1Br [o-bromobenzoic_acid] | 149 °C
23 | Brc1ccccc1I [o-bromoiodobenzene] | 10 °C
24 | N#CCc1ccccc1Br [o-bromophenylacetonitrile] | -1 °C

Row | SMILES | melting point
25 | Cc1ccccc1O [o-cresol] | 31 °C and 32 °C
26 | N#CCc1ccccc1C#N [o-cyano_phenylacetonitrile] | 80 °C
27 | N#Cc1ccccc1C=O [o-cyanobenzaldehyde] | 108 °C
28 | COc1ccccc1OC [o-dimethoxybenzene] | 15 °C
29 | Nc1ccccc1I [o-iodoaniline] | 58 °C
30 | OCc1ccccc1I [o-iodobenzyl_alcohol] | 92 °C
31 | Oc1ccccc1I [o-iodophenol] | 42 °C
32 | CC(=O)c1ccccc1[N+](=O)[O-] [o-nitroacetophenone] | 30 °C
33 | O=C(O)c1ccccc1[N+](=O)[O-] [o-nitrobenzoic_acid] | 148 °C
34 | N#CCc1ccccc1[N+](=O)[O-] [o-nitrophenylacetonitrile] | 84 °C
35 | O=C(O)Cc1ccccc1-c1ccccc1 [o-phenyl_phenylacetic_acid] | 116 °C
36 | NC(=O)c1ccccc1-c1ccccc1 [o-phenylbenzamide] | 177 °C
37 | Oc1ccccc1-c1ccccc1 [o-phenylphenol] | 60 °C
38 | Cc1ccccc1C#N [o-tolunitrile] | 13 °C
39 | C=Cc1ccccc1C(N)=O [o-vinylbenzamide] | 152 °C
40 | C[Si]1(C)O[Si](C)(C)O[Si](C)(C)O[Si](C)(C)O1 [octamethylcyclotetrasiloxane] | 18 °C
41 | CCCCCCCC [octane] | -57 °C and -56.8 °C
42 | CCCCCCCC(=O)O [octanoic acid] | 16.3 °C and 17 °C
43 | Cc1nccn1CC1CCc2c(c3ccccc3n2C)C1=O (stereo not drawn) [ondansetron] | 231 °C
44 | O(c1ccccc1OC\C=C)CC(O)CNC(C)C (stereo not drawn) [oxprenolol] | 112 °C
45 | O=C(c1ccc(Br)cc1)c1ccc(Br)cc1 [p,p'-dibromobenzophenone] | 175 °C
46 | N#Cc1ccc(-c2ccc(C#N)cc2)cc1 [p,p'-dicyanobiphenyl] | 237 °C
47 | Cc1ccc(O)cc1 [p-Cresol] | 34 °C
48 | Nc1ccc(CO)cc1 [p-amino_benzyl_alcohol] | 75 °C

Row | SMILES | melting point
49 | Nc1ccc(C(=O)O)c(O)c1 [p-aminosalicylic acid] | 150 °C
50 | COc1ccc(C(=O)O)cc1 [p-anisic_acid] | 184 °C
51 | O=C1C=CC(=O)C=C1 [p-benzoquinone] | 114 °C
52 | CC(=O)c1ccc(Br)cc1 [p-bromoacetophenone] | 51 °C
53 | Nc1ccc(Br)cc1 [p-bromoaniline] | 63 °C
54 | O=C(c1ccccc1)c1ccc(Br)cc1 [p-bromobenzophenone] | 82 °C
55 | N#CCc1ccc(Br)cc1 [p-bromophenylacetonitrile] | 48 °C
56 | O=Cc1ccc(Cl)cc1 [p-chlorobenzaldehyde] | 46 °C
57 | Oc1ccc(Cl)cc1 [p-chlorophenol] | 44 °C
58 | Cc1ccc(O)cc1 [p-cresol] | 33 °C
59 | N#CCc1ccc(C#N)cc1 [p-cyano_phenylacetonitrile] | 100 °C
60 | N#CCc1ccc(C(=O)O)cc1 [p-cyanomethyl_benzoic_acid] | 192 °C
61 | C=Cc1ccc(C#N)cc1 [p-cyanostyrene] | -15 °C
62 | Brc1ccc(Br)cc1 [p-dibromobenzene] | 88 °C
63 | CCOc1ccc(OCC)cc1 [p-diethoxybenzene] | 72 °C
64 | COc1ccc(OC)cc1 [p-dimethoxybenzene] | 60 °C
65 | CCOc1ccc(C(C)=O)cc1 [p-ethoxyacetophenone] | 39 °C
66 | NC(=O)c1ccc(C=O)cc1 [p-formyl_benzamide] | 75 °C
67 | NC(=O)c1ccc(CO)cc1 [p-hydroxymethyl_benzamide] | 135 °C
68 | Nc1ccc(I)cc1 [p-iodoaniline] | 63 °C
69 | O=C(O)c1ccc(I)cc1 [p-iodobenzoic_acid] | 273 °C
70 | Cc1ccc(I)cc1 [p-iodotoluene] | 43 °C
71 | Nc1ccc([N+](=O)[O-])cc1 [p-nitroaniline] | 150 °C
72 | N#Cc1ccc([N+](=O)[O-])cc1 [p-nitrobenzonitrile] | 149 °C

Row | SMILES | melting point
73 | CC(=O)Oc1ccc([N+](=O)[O-])cc1 [p-nitrophenyl_acetate] | 78 °C
74 | C=Cc1ccc([N+](=O)[O-])cc1 [p-nitrostyrene] | 29 °C
75 | O=Cc1ccc(-c2ccccc2)cc1 [p-phenylbenzaldehyde] | 60 °C
76 | OCc1ccc(-c2ccccc2)cc1 [p-phenylbenzyl alcohol] | 105 °C
77 | Nc1ccc(N)cc1 [p-phenylenediamine] | 140 °C
78 | Cc1ccc(C=O)cc1 [p-tolualdehyde] | -6 °C
79 | Cc1ccc(C(N)=O)cc1 [p-toluamide] | 163 °C
80 | Cc1ccc(S(=O)(=O)Cl)cc1 [p-toluenesulfonyl_chloride] | 69 °C
81 | Cc1ccc(C(=O)O)cc1 [p-toluic acid] | 180 °C
82 | Cc1ccc(N)cc1 [p-toluidine] | 44 °C
83 | Clc1cc(Cl)c(Cl)c(Cl)c1Cl [pentachlorobenzene] | 86 °C
84 | CCCCCCCCCCCCCCC(=O)O [pentadecanoic acid] | 53 °C
85 | O=Cc1c(F)c(F)c(F)c(F)c1F [pentafluorobenzaldehyde] | 26 °C
86 | CCCCC [pentane] | -130 °C
87 | CCCC(C)C1(CC)C(=O)NC(=O)NC1=O (stereo not drawn) [pentobarbital] | 130 °C
88 | CCCCCOCCCCC [pentyl_ether] | -69 °C
89 | CN1CCN(CCCN2c3ccccc3Sc3ccccc32)CC1 [perazine] | 53 °C
90 | OCCN1CCN(CCCN2c3ccccc3Sc3ccc(Cl)cc32)CC1 [perphenazine] | 94 °C
91 | c1cc2cccc3c4cccc5cccc(c(c1)c23)c54 [perylene] | 277 °C and 278 °C (2×)
92 | CCOc1ccc(NC(C)=O)cc1 [phenacetin] [listing 1 of 2 here] | 134 °C
93 | CCOc1ccc(NC(C)=O)cc1 [phenacetin] [listing 2 of 2 here] | 138 °C and 135 °C (2×)
94 | C=CCC1(c2ccccc2)C(=O)NC(=O)NC1=O [phenallymal] | 156 °C
95 | c1ccc2nc3ccccc3nc2c1 [phenazine] | 176 °C
96 | CCC1(c2ccccc2)C(O)=NC(=O)N=C1O [phenobarbital] | 176 °C

Row | SMILES | melting point
97 | Oc1ccccc1 [phenol] [listing 1 of 2 here] | 41 °C
98 | Oc1ccccc1 [phenol] [listing 2 of 2 here] | 41 °C (3×) and 42 °C
99 | O=C1NN(c2ccccc2)C(=O)C1c1ccccc1 (stereo not drawn) [phenopyrazone] | 233 °C
100 | O=C(Oc1ccccc1)c1ccccc1 [phenyl benzoate] | 69 °C
101 | NC(=O)Oc1ccccc1 [phenyl carbamate] | 151 °C
102 | O=C=Nc1ccccc1 [phenyl isocyanate] | -33 °C
103 | O=C(Oc1ccccc1)c1ccccc1O [phenyl salicylate] [listing 1 of 2 here] | 42.2 °C
104 | O=C(Oc1ccccc1)c1ccccc1O [phenyl salicylate] [listing 2 of 2 here] | 43 °C
105 | c1ccc(Oc2ccccc2)cc1 [phenyl_ether] | 28 °C
106 | O=C(O)Cc1ccccc1 [phenylacetic acid] | 77.5 °C and 76.7 °C and 77 °C
107 | O=C(O)Cc1ccccc1 [phenylacetic_acid] | 79 °C
108 | NC(Cc1ccccc1)C(=O)O (stereo not drawn) [phenylalanine] | 186 °C
109 | CCCCC1C(=O)N(c2ccccc2)N(c2ccccc2)C1=O [phenylbutazone] | 107 °C
110 | O=[PH](O)c1ccccc1 [phenylphosphinic acid] | 84 °C
111 | O=C(O)c1ccccc1C(=O)O [phthalic acid] | 230 °C
112 | COC(=O)c1ccccc1C(N)=O [phthalic_acid,_methylester_amide] | 100 °C
113 | O=C(O)c1ccccc1C(=O)O [phthalic_acid] | 210 °C
114 | O=C1NC(=O)c2ccccc21 [phthalimide] | 234 °C
115 | CC(C)(O)C(C)(C)O [pinacol, anhydrous] | 44 °C
116 | CCC1(CC)C(=O)CCNC1=O [piperidione] | 102 °C
117 | O=Cc1ccc2c(c1)OCO2 [piperonal] | 37 °C
118 | O=C(O)c1ccc2c(c1)OCO2 [piperonylic acid] | 233 °C

Reference: the Bradley open melting point set (2014)
